Data from patent US20110129844A1, “Use of Activating Transcription Factor-2 (ATF2) for Detecting Skin Cancer” (priority 2007, published 2011).
Where two headings read alike, the source gives them in different places.

How the values were obtained:
basal epidermal cells = experiment: BrdU incorporation in basal keratinocytes after TPA treatment; assay type: in vivo, mice
Procedure: 5-bromo-2-deoxyuridine (BrdU) incorporation. 8-week-old K14.ATF2^f/f mice and WT mice were shaved 2 days before treatment with TPA (10 μg/200 μl acetone). BrdU (0.1 mg/g body weight) was injected intraperitoneally 1 h before the mice were sacrificed. The mice were euthanized 7, 24 and 48 h after six TPA treatments and their dorsal skins were removed, fixed in formalin and processed for paraffin embedding. Immunohistochemical staining was performed with a monoclonal anti-BrdU antibody (Sigma Aldrich, 1:100), which was applied to each section overnight at 4° C. after masking mouse IgG according to the protocol of the M.O.M. kit. […] BrdU positive and negative basal cells were counted in three to five randomly selected areas of each skin section (3-4 sections per mouse) and the mean percentage of BrdU-positive cells and standard deviation (s.d.) for each treatment group were determined.
Induced DNA synthesis in basal epidermal cells of TPA-treated K14.ATF2^f/f mice. In light of the enhanced hyperplastic responses seen in the epidermis of K14.ATF2^f/f mice, possible changes in the rate of keratinocyte proliferation, which could account for the increased hyperplasia, were assessed. BrdU labeling was carried out to quantify DNA synthesis in basal keratinocytes. […]

epidermis = details: three topical applications of TPA at 10 μg each; for thickness of hyperplastic epidermis (mean±SD): 18 hrs post treatment; for thickness of epidermal layers: after 48 hrs
Procedure: Measurement of Hyperplasia. Hyperplasia was assessed in six WT and K14.ATF2^f/f mice (8-week-old) after treatment with acetone or TPA at the indicated time points. The thickness of the epidermis (μm) was measured using an image system (SlideBook-Intelligent imaging) in 15 fields per section.
In order to determine the possible effect of ATF2 disruption on keratinocyte proliferation possible changes in epidermal hyperplasia was assessed.

SMILES	percentage of BrdU-labeled basal cells (basal epidermal cells; K14.ATF2f/f mice, 24 h after TPA treatment)	percentage of BrdU-labeled basal cells (basal epidermal cells; wild-type mice, 24 hours after TPA treatment)	papilloma development (epidermal keratinocytes; DMBA or TPA alone, WT or ATF2 mutant mice)	thickness of hyperplastic epidermis (mean±SD) (epidermis; K14.ATF2f/f mice)	thickness of epidermal layers (epidermis; K14.ATF2f/f mice)	thickness of hyperplastic epidermis (mean±SD) (epidermis; WT mice)	thickness of epidermal layers (epidermis; wild-type mice)	mice having developed tumors (epidermal keratinocytes; mouse, in vivo)	mice that had developed tumors (epidermal keratinocytes; mouse, in vivo)	papilloma development (epidermal keratinocytes; mouse, in vivo)	time at which papillomas started to appear after DMBA treatment (epidermal keratinocytes; mouse, in vivo)
CCCCCCCCCCCCCC(=O)O[C@@H]1[C@@H](C)[C@@]2(O)[C@@H](C=C(CO)C[C@]3(O)C(=O)C(C)=C[C@@H]23)[C@H]2C(C)(C)[C@]12OC(C)=O [TPA]	32±3.0%	15±3%	did not result in papilloma development	42±3.2 μm	102±2.8 μm	21±2.6 μm	45±2.3 μm	–	–	–	–
Cc1c2ccccc2c(C)c2c1ccc1ccccc12 [DMBA, 7,12-dimethylbenz[a]anthracene]	–	–	–	–	–	–	–	50%	about 40%	did not result in papilloma development	around 17 weeks
